The record followed here is article PMC8610377, “Target identification for small-molecule discovery in the FOXO3a tumor-suppressor pathway using a biodiverse peptide library” (Cell Chemical Biology, 2021).

By IC50 is commonly meant the point on the concentration scale where inhibition reaches its midpoint.

In one assay the target is T1, 14-3-3ε (Homo sapiens, UniProt P62258).
T1 sequence (P62258 1-255): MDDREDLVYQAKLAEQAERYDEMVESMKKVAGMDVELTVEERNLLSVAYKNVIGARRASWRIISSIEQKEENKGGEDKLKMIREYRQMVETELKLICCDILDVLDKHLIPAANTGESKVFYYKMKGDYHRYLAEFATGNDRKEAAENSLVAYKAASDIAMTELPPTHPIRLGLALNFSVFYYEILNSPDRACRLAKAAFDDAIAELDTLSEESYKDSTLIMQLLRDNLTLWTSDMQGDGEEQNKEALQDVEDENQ
The experiment in a line: STD-NMR. The following applies: 100 μM 9J10, 10 μM 14-3-3ε, 2% d6-DMSO. It counts as binding. How it is done: (§1) Protein purity was visualized by running SDS-PAGE.
1H NMR and STD spectra were recorded with a Bruker Avance-III HD 600 MHz at 298 K. Bruker TopSpin software was used to acquire and process the NMR data. NMR samples were prepared in D2O, with 100 μM 9J10 peptide (LNRTPGRRRN(p-Serine)N-acid) (Sigma-Aldrich), and 10 μM 14-3-3ε protein. For STD NMR measurements standard Bruker pulse sequence stddiffesgp.3 was used, the on-resonance frequency was set to be 0 ppm, and the off-resonance frequency at −40 ppm. The number of scans was typically 64, both the saturation pulses and relaxation delay were set to be 5 s and the power of the shaped pulse for saturation was set at 40 dB. Experiments with the varying concentrations of CU7218 were performed by mixing appropriate volume of the compound in DMSO and the final DMSO concentration was adjusted to 2.0% by using d6-DMSO.

For assay [1], the target named is T2, 9J10/14-3-3ε interaction (Homo sapiens, UniProt P62258).
T2 construct: A synthetic gene construct encoding full length human 14-3-3ε; made in house; host or cells: E. coli BL21(DE3)
T2 sequence (P62258 1-255): T1 sequence (P62258 1-255)
The experiment in a line: FP competition, TAMRA-p9J10Min binding to 14-3-3ε. To be noted: 10nM TAMRA-p9J10Min, His-14-3-3ε 1.5 μM, top concentration 200 μM, 0.4% DMSO; mean of three independent experiments; read-out: IC50, FP. As for the experimental part: Protein purity was visualized by running SDS-PAGE. […] Compound dilution plates, black 384 well NBS assay plates and tip racks were loaded into the Cytomat as indicated by the scheduling software. […] Test compounds were diluted to 3X final concentration in the dilution plates. 10 μL of diluted compound was added into each well of the assay plate followed by 10μL of […]-3-3ε and 10μL of TAMRA-p9J10Min. Plates were incubated at room temperature for 20 min on the robot's deck or in the Cytomat before the Fluorescence Polarisation was read using the BMG PheraStar plate reader. Test compounds were assayed in triplicate. […] DMSO controls were run alongside all experimental compounds and % inhibition normalised to these controls. All other experimental conditions were as described above.

For assay [2], the target named is T2, 9J10/14-3-3ε interaction. Kind of assay: competitive microscale thermophoresis (MST). To be noted: 20 nM labeled 14-3-3ε, 1 μM cognate peptide (EC80), 2% DMSO, 25°C; mean of three independent experiments. The assay is classed as binding. As for the experimental part:
as §1
The 14-3-3ε protein was labeled with NT-647-NHS fluorescent dye using the Monolith Protein Labeling Kit (Cat# MO-L011, NanoTemper Technologies). Assays were carried out in 10 mM Hepes, 150 mM NaCl and 0.01% Tween 20. For the direct binding assay, 10 μL of labeled protein at a final concentration of 20 nM was mixed with 10 μL of cognate peptide. For the competitive assay, 10 μL of labeled protein at a final concentration of 20 nM was mixed with 1 μM of cognate peptide at the EC80 concentration determined by prior titration using a 16-point serial dilution by direct-binding MST. […] An initial ‘‘CapillaryScan’’ was performed to scan for fluorescence across the length of the capillary tray to determine the exact position of each capillary before the MST measurement was started. Test compound in 2% final DMSO concentration was assayed at 16 different concentrations by serial dilution, and data were analyzed using NanoTemper analysis software with ‘‘T-jump + Thermophoresis’’ settings. The change in thermophoresis between different experimental conditions was expressed as the change in the normalized fluorescence (ΔFnorm), which is defined as Fhot/Fcold (F-values correspond to average fluorescence values between defined areas in the curve under steadystate conditions under control (Fcold) or experimental (Fhot) conditions). […]

Assay [3] deals with polo-box domain of human polo-like kinase 1 (PLK1). The experiment in a line: selectivity: substrate recognition by polo-box domain. The assay is classed as binding.

As to `Cc1c(C(=O)O)sc2[nH]c(=S)[nH]c(=O)c12` [CU7218], the “9J10 STD signal intensity with CU7218” value at 14-3-3ε is listed as “markedly reduced the 9J10 STD signal intensity”. In addition, the “lowest CU7218 concentration markedly reducing the 9J10 STD signal” value at 14-3-3ε (tested 50-250 μM) is ≥ 150 µM. Further, the IC50 was 111 µM on 9J10/14-3-3ε interaction [1] and 26.5 µM at 9J10/14-3-3ε interaction [2]. The “disruption of substrate recognition by PLK1 polo-box domain” value in assay [3] is given as “failed to disrupt substrate recognition”.
